Test results reported in PubChem BioAssay AID588672 (Sanford-Burnham Center for Chemical Genomics, 2011).
The source made the active and inactive calls.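 How the source made its calls: active means IC50 at or below 20 µM; inactive means the rest.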

What follows are molecules tested against Glucose-6-phosphate 1-dehydrogenase (Homo sapiens) (UniProt P11413) (assay: inhibition of recombinant human G6PD – biochemical, fluorescence, dose response, set 2, selectivity assay for P. falciparum G6PD inhibitor project, SAR follow-up (AID 588672)). Conditions: NADPH-diaphorase-resazurin fluorescence.
Glucose-6-phosphate 1-dehydrogenase (Homo sapiens), sequence (P11413 whole entry, looked up): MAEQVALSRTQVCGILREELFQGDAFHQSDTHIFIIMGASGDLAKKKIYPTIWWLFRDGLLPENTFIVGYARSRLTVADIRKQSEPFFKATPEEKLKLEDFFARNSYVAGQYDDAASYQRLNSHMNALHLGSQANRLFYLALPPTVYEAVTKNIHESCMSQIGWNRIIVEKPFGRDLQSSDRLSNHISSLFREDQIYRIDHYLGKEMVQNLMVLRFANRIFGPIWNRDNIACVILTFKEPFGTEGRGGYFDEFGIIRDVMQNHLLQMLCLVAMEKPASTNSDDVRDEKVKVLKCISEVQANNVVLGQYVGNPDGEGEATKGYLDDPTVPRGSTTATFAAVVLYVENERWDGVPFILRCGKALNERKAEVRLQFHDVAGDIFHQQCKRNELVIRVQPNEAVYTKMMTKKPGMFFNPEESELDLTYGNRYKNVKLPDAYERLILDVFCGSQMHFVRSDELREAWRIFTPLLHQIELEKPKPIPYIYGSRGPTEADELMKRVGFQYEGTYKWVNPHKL

Row | SMILES | IC50
1 | CCN(CC)CCNC(=O)c1ccc2c(c1)NC(=O)c1ccccc1S2 | > 80 µM (inactive)
2 | CCN1CCCC1CNC(=O)c1ccc2c(c1)NC(=O)/C(=C/c1ccccc1OC)S2 (stereo not given) | > 80 µM (inactive)
3 | O=C1Nc2cc(C(=O)NCCN3CCOCC3)ccc2S/C1=C\c1ccccc1F | > 80 µM (inactive)
4 | O=C1COc2ccc(C(=O)NCCN3CCCC3)cc2N1 | > 80 µM (inactive)
5 | CN1CCCC1CCNC(=O)c1ccc2c(c1)NC(=O)/C(=C/c1ccccc1F)S2 (stereo not given) | > 80 µM (inactive)
6 | O=C1Nc2cc(C(=O)NCCN3CCCCC3)ccc2S/C1=C\c1ccccc1F | > 80 µM (inactive)
7 | O=C1Nc2cc(C(=O)NCc3ccccc3)ccc2S/C1=C\c1ccccc1F | > 80 µM (inactive)
8 | CCN1CCCC1CNC(=O)c1ccc2c(c1)NC(=O)/C(=C/c1cccc3ccccc13)S2 (stereo not given) | > 80 µM (inactive)
9 | O=C1COc2ccc(C(=O)NCCN3CCOCC3)cc2N1 | > 80 µM (inactive)
10 | CN(C)CCNC(=O)c1ccc2c(c1)NC(=O)/C(=C/c1ccccc1F)S2 | > 80 µM (inactive)
11 | CCN(CC)CCNC(=O)c1ccc2c(c1)NC(=O)c1ccccc1O2 | > 80 µM (inactive)
12 | O=C(NCCN1CCCC1)c1ccc2c(c1)NC(=O)c1ccccc1S2 | > 80 µM (inactive)
13 | CN1CCN(C(=O)c2ccc3c(c2)NC(=O)/C(=C/c2ccccc2Cl)S3)CC1 | > 80 µM (inactive)
14 | CN(C)CCNC(=O)c1ccc2c(c1)NC(=O)CO2 | > 80 µM (inactive)
15 | O=C1Nc2cc(C(=O)NCCN3CCCC3)ccc2S/C1=C\c1ccccc1F | > 80 µM (inactive)
16 | CCN(CC)CCNC(=O)c1ccc2c(c1)NC(=O)CO2 | > 80 µM (inactive)
17 | O=C1COc2ccc(C(=O)NCCN3CCCCC3)cc2N1 | > 80 µM (inactive)
18 | CCN1CCCC1CNC(=O)c1ccc2c(c1)NC(=O)CS2 (stereo not given) | > 80 µM (inactive)

Other lines, results leading:

Row | IC50 | SMILES
19 | > 80 µM (inactive) | O=C(NCCN1CCCCC1)c1ccc2c(c1)NC(=O)c1ccccc1O2
20 | > 80 µM (inactive) | CN(C)CCNC(=O)c1ccc2c(c1)NC(=O)c1ccccc1O2
21 | > 80 µM (inactive) | O=C(NCCN1CCOCC1)c1ccc2c(c1)NC(=O)c1ccccc1O2
22 | > 80 µM (inactive) | CCN1CCC[C@@H]1CNC(=O)c1ccc2c(c1)NC(=O)/C(=C/c1ccccc1F)S2
23 | > 80 µM (inactive) | O=C(NCCN1CCCC1)c1ccc2c(c1)NC(=O)c1ccccc1O2
24 | > 80 µM (inactive) | CCN1CCCC1CNC(=O)c1ccc2c(c1)NC(=O)/C(=C/c1ccccc1)S2 (stereo not given)
25 | > 80 µM (inactive) | CCN1CCCC1CNC(=O)c1ccc2c(c1)NC(=O)c1ccccc1S2 (stereo not given)
26 | > 80 µM (inactive) | CCN1CCCC1CNC(=O)c1ccc2c(c1)NC(=O)CO2 (stereo not given)
27 | > 80 µM (inactive) | CCN1CCCC1CNC(=O)c1ccc2c(c1)NC(=O)/C(=C/c1ccccc1F)S2 (stereo not given)
28 | > 80 µM (inactive) | CCN1CCCC1CNC(=O)c1ccc2c(c1)NC(=O)c1ccccc1O2 (stereo not given)
29 | > 80 µM (inactive) | CCN1CCCC1CNC(=O)c1ccc2c(c1)NC(=O)/C(=C/c1ccccc1C)S2 (stereo not given)
30 | > 80 µM (inactive) | CCN1CCC[C@H]1CNC(=O)c1ccc2c(c1)NC(=O)/C(=C/c1ccccc1F)S2
